A melting point compilation (Tetko et al.)

Settings: a range is the spread between reports

melting point [°C]	SMILES
80 to 81	OCc1ccccc1Br
199 to 200	CC12CCC(C(=O)C1=O)C2(C)C (stereo unspecified)
53 to 56	COc1ccc(/N=N/c2ccccc2)cc1
220 to 222	O=C1CNC(=O)N1
-90 to -89.7	C#CC(C)C
130 to 133	O=C(O)c1cc(F)ccc1F
65 to 66	COc1cc(CNC(=O)CCCCC=CC(C)C)ccc1O
-9 to -7	COC(=O)c1ccccc1O
-8 to -7	COc1cccc(C(C)=O)c1
-41 to -40	CCCCCC(=O)OC(=O)CCCCC
105 to 108	O=Cc1ccc([N+](=O)[O-])cc1
89 to 90	O=C(c1cccs1)c1cccs1
35 to 36.5	O/N=C\c1ccccc1
121 to 122	C=C(CC)C(=O)c1ccc(OCC(=O)O)c(Cl)c1Cl
46 to 47	COc1cc(C=O)cc(OC)c1
60 to 61	CC(C)c1ncc([N+](=O)[O-])n1C
148 to 150	O=C(O)c1cccc(Oc2ccccc2)c1
175 to 176	Nc1ccc2[nH]ncc2c1
130 to 131	CC1=CCC(C(C)(C)O)CC1O (stereo unspecified)
10 to 12.3	CCCCCCCCC(=O)O
-111	CCC(S)CC
-85 to -84.8	CCCCCCC(C)CC (stereo unspecified)
115 to 118	Brc1sc(Br)c(Br)c1Br
32.5 to 34	N#CCc1cccc2ccccc12

melting point [°C]	SMILES
-11 to -10	CCCCOC(=O)CCCCCCCCC(=O)OCCCC
10 to 12.4	c1ccc(Cc2ccncc2)cc1
169 to 171	O=C(O)c1ccc(O)c(Cl)c1
47 to 49.5	COC(C(=O)c1ccccc1)c1ccccc1 (stereo unspecified)
60 to 61	O=C1CCCCCCCCCCC1
95 to 96	C=Cc1cccc(C(=O)O)c1
-2 to -1.8	C1=Cc2ccccc2C1
-31.3 to -31	CCCCCCCCCCCl
56 to 58	O=Cc1cccc(I)c1
9 to 10	O=[N+]([O-])c1ccc(F)cc1F
67.5 to 68	Clc1ccc(Cl)nn1
-107	CC(C)CC(C)(C)C
-64 to -63.7	Cc1cccc(C(C)C)c1
-85 to -84.7	COC(=O)C(C)C
300	c1ccc2[nH]c(-c3cscn3)nc2c1
-2.2 to -2	CC#CCO
-45.1 to -42	CCCCCCOCCO
-69 to -68.7	CCCCCC(=O)OCCC
-100 to -99	C[Si](C)(C)C
50 to 53	COc1ccc(I)cc1
155 to 157	CC(=O)Nc1ccc(Cl)cc1F
-30 to -29.5	CCOc1ccccc1
126 to 127	COc1ccc(NC(=O)N(C)C)cc1Cl
70 to 72	CCOc1ccc(OCC)cc1

melting point [°C]	SMILES
114 to 115	COc1cc(C(C)=O)ccc1O
167 to 172	Cc1cc(NS(=O)(=O)c2ccc(N)cc2)no1
61 to 65	COc1ccc(C=Nc2ccccc2)cc1
30.5 to 34	O=[N+]([O-])c1ccc(Cl)cc1Cl
195 to 196	O=C(O)C1CSCN1 (stereo unspecified)
96.5 to 97.8	O=C(O)CCCC(=O)O
-160	CCC(C)C
-98 to -94.2	FC(F)(F)CC(F)(F)F
26 to 28.5	COc1ccc(Cl)cc1Cl
-99.3 to -99	CCOC(=O)CC(C)C
-34 to -33.7	CCCCC(=O)O
12 to 13.5	C[Si](C)(C)[Si](C)(C)C
-2 to -0.8	Nc1ccc(F)cc1
-99 to -98.8	CC(=O)OCC(C)C
126 to 128	O=C1Cc2ccccc2N1
-91 to -90.6	CCCCCCC
18 to 19	CNc1ccccc1C(=O)OC
182 to 183	NC(=O)c1ccc(N)cc1
-118	CCC(C)=C(C)C
128	CCCNC(=O)NS(=O)(=O)c1ccc(Cl)cc1
53 to 55	c1cnccn1
52 to 53	CN1CCN(CCCN2c3ccccc3Sc3ccccc32)CC1
193 to 197	O=C(O)C(S)C(S)C(=O)O (stereo unspecified)
118 to 119	O=C(n1ccnc1)n1ccnc1

The remaining lines, values behind:

SMILES	melting point [°C]
CCCCCCCC	-57 to -56.8
CCOC(=O)Cc1ccccc1	-29.4 to -29
COC	-142 to -138
O=C(c1ccccc1)c1cccc(Br)c1	76 to 81
ClCCOCCCl	-51.9 to -47
ClC1=C(Cl)[C@]2(Cl)[C@@H]3[C@@H]4C[C@@H]([C@H]5O[C@@H]45)[C@@H]3[C@@]1(Cl)C2(Cl)Cl	175 to 176
Oc1cc(Cl)c(Cl)cc1Cl	65.5 to 69
C/C=C/c1ccc(OC)cc1	21 to 23
COc1cc(C=CCO)ccc1O	74 to 76
COc1cccc(C(=O)NN)c1	92 to 94
O=C(Cl)CCc1ccccc1	-7 to -2
O=[N+]([O-])c1cc(C(F)(F)F)ccc1Cl	-3 to -2.5
CCC(=O)C(CC(C)N(C)C)(c1ccccc1)c1ccccc1 (stereo unspecified)	98.8 to 102
Nc1ccccc1-c1ccccc1	49 to 51.5
C=CC(C)(C)C	-115
OCc1ccc(Br)cc1	76 to 78
c1ccc(OP(Oc2ccccc2)Oc2ccccc2)cc1	23 to 25
CN(C)c1ccncc1	111 to 112
Oc1ccc2cccc(O)c2c1	180 to 182
O=C=Nc1cccc(N=C=O)c1	48 to 50
COc1ccc(Br)cc1	10 to 13.5
CNC(=O)CSP(=S)(OC)OC	51.5 to 52
NS(=O)(=O)c1ccc(Cl)cc1	145 to 146
C=Cc1ccc(C(=O)O)cc1	142 to 144

SMILES	melting point [°C]
NC(=O)c1cccc(N)c1	113 to 116
CC(=O)Nc1ccc(C#N)cc1	205 to 207
O=C1c2ccccc2Cc2ccccc21	155 to 157
CO	-98 to -97.5
c1ccc(-c2ccccn2)nc1	70 to 72
CCOc1ccc(CC(=O)O)cc1	88.5 to 89
CCCc1ccccc1	-100 to -99
CCCOc1ccccc1	-28 to -27
O=C(O)c1ccc([N+](=O)[O-])c([N+](=O)[O-])c1	165 to 166
Cc1ccccc1CCl	-2 to 2
COc1ccc(-c2ccccc2)cc1	88 to 91
Clc1cccc(Cl)c1	-25 to -24.8
O=C(O)C=Cc1ccccc1C(F)(F)F	202 to 206
CC(C)(C)OO	-8 to -3
CC(N)=S	112 to 116
c1ccc2c(c1)ccc1cccnc12	50 to 52
ClC1=C(Cl)C2(Cl)C3C(Cl)C(Cl)CC3C1(Cl)C2(Cl)Cl (stereo unspecified)	104 to 106
CC(C)(C)OOC(=O)c1ccccc1	7 to 8
O=c1cc(-c2ccccc2)oc2ccccc12	97 to 100
CCCCC=O	-92 to -91
Cc1cc(C)cc(C)c1	-45 to -44.7
N#Cc1cc([N+](=O)[O-])c(Cl)c([N+](=O)[O-])c1	141
Cc1cccnc1	-18.1 to -18
CC(C)N(CCC(C(N)=O)(c1ccccc1)c1ccccn1)C(C)C (stereo unspecified)	94.8

SMILES	melting point [°C]
O=C(O)CCC(=O)c1ccccc1	117 to 118
Nc1ccc(Cl)cc1C(=O)c1ccccc1	96 to 99
Cc1ccc(S(=O)(=O)F)cc1	41 to 41.5
Fc1c(F)c(F)c2c(F)c(F)c(F)c(F)c2c1F	87 to 87.5
Clc1cc(Cl)c(Cl)c(Cl)c1	51.5 to 55
ClC(Cl)c1ccccc1	-17 to -16
CCCCCCCCCCCCCC	5.5 to 6
S=C=Nc1cccc2ccccc12	56 to 58
O=S(=O)(Cl)c1ccc(I)cc1	82 to 85
O=C1c2ccccc2CCc2ccccc21	30 to 33
CC(C)Cl	-118 to -117
O=[N+]([O-])c1ccco1	30 to 31
Nc1cc(Cl)ccc1O	140 to 143
OCC(O)c1ccccc1 (stereo unspecified)	67 to 68
Nc1ccc2ccccc2c1	112 to 113
CCCCCCCCCCCCCCCCCCCC(=O)O	75 to 75.4
CC(C)S	-131 to -130
Cc1ccc(CCl)cc1	4 to 5
Cc1csc(S)n1	88 to 89.3
CCCCN	-50 to -49
O=[N+]([O-])c1ccccc1-c1ccccc1	37 to 37.2
O=P(O)(O)CCCl	70 to 74.5
Cc1cccc2c1ccc1cc(C(C)C)ccc12	99 to 101
C=CBr	-139 to -138

SMILES	melting point [°C]
CCCCc1ccccc1	-88 to -87.9
OCCCCCCCCCO	45.8 to 47
CCCSSCCC	-86 to -85.6
CC(C)(C)C1=CC(=O)C(=O)C(C(C)(C)C)=C1	114 to 115
CC12CCC3C(CCC4CC(OCc5ccccc5)CCC43C)C1CCC2=O (stereo unspecified)	216 to 220
O=C(O)c1cc([N+](=O)[O-])cc([N+](=O)[O-])c1	205 to 206
O=C=Nc1ccc(Cc2ccc(N=C=O)cc2)cc1	37.2 to 38
CN(C)C(=O)Nc1ccc(Cl)cc1	170 to 174
O=C(/C=C/c1ccc2ccccc2c1)/C=C/c1ccc2ccccc2c1	242 to 245
[O-][N+](=Nc1ccccc1)c1ccccc1	35 to 36
NC(=O)c1cc([N+](=O)[O-])cc([N+](=O)[O-])c1	182 to 184
OCc1c(F)c(F)c(F)c(F)c1F	34 to 37.5
Brc1ccc(Br)cc1	87 to 88
c1ccc([Si](c2ccccc2)(c2ccccc2)c2ccccc2)cc1	236 to 237
Oc1c(Cl)cc(Cl)c(Cl)c1Cc1c(O)c(Cl)cc(Cl)c1Cl	164 to 166
ClCc1cccc(CCl)c1	34.2 to 36
O=C(O)Cc1ccc(C(F)(F)F)cc1	80 to 84
CC1CC(C)C(C)C1 (stereo unspecified)	-133 to -131
CCCCCCCCCCCCCCCC(C)C	5.7 to 6
BrCC(Br)c1ccccc1 (stereo unspecified)	72 to 75
CCOC(=O)/C=C/C(=O)OCC	0 to 2
O=C(c1ccccc1)c1ccc(O)cc1O	144 to 146
